Laboratory results as given in patent US20180134726A1, “PLANT GROWTH REGULATING COMPOUNDS” (Syngenta Participations AG, priority 2012, published 2018).

How the values were obtained:
[1] = test system: Orobanche cumana Wallr. seeds (race 'F'); experiment: Orobanche cumana seed germination test on glass fiber filter paper; assay type: in vivo; conditions: preconditioned seeds, seed lot IN153, 10 days at 20° C. in the dark, mean, N = 5 × 100 seeds
Protocol: The effect of compounds of Formula (I) on germination of Orobanche cumana Wallr. seeds was evaluated on glass fiber filter paper (GFFP) in petri dishes. Seeds were preconditioned at moisture and suitable temperature to become responsive to the specific chemical germination stimulants.
Test compounds were dissolved in DMSO (10 000 mg l^−1) and stored at room temperature in a desiccators with desiccants. The stock solutions were dissolved with deionised water to the appropriate final test concentration.
Seeds of O. cumana race ‘F’ were collected from sunflower fields in Manzanilla (Seville, Spain) in 2008 (seed lot IN153) and stored at room temperature. To separate seeds from heavy organic debris, a modified sucrose floatation technique as described by Hartman & Tanimonure (Plant Disease (1991), 75, p. 494) was applied. Seeds were filled into a separation funnel and stirred in water. When seeds floated to the surface, the water fraction containing heavy debris was discarded. Seeds were re-suspended in 2.5M sucrose solution (specific gravity of 1.20) and heavy debris was allowed to settle down for 60 min. After removing debris, seeds were disinfected in 1% sodium hypochlorite solution and 0.025% (v/v) Tween 20 for 2 min. The seeds were decanted onto two layers of cheesecloth, rinsed with sterile deionised water and re-suspended in sterile deionised water. Two ml of the seed suspension containing approximately 150-400 seeds were spread evenly on two layers of sterile glass fiber filter paper disc ([…]) in Petri dishes (Ø9 cm). After wetting the discs with 3 ml sterile deionised water, petri dishes were sealed with parafilm. Seeds were incubated for 10 days at 20° C. in the dark for seed conditioning. The upper disc with conditioned seeds was briefly dried, transferred to a petri dish lined with a dry GFFP disc, and wetted with 6 ml of the appropriate test solution. The compounds of Formula (I) were tested at concentrations of 0.001, 0.01, and 0.1 mg l^−1. The strigolactone analogue GR24 (commercially available as a mixture of isomers) was included as positive control and 0.001% DMSO as negative control. All treatments were tested in five replicates. Seeds were re-incubated at 20° C. in the dark and examined for germination 10 days later. The radicles of germinated seeds were stained for 5 min with blue ink (MIGROS, Switzerland) in 5% acetic acid according to Long et al. (Seed Science Research (2008), 18, p. 125). After staining, seeds were scanned using a flatbed scanner with an optical resolution of 1200 dpi (PULSTEK, OpticPro ST28) or photographed using a camera stand mounted with a digital SLR camera (Canon EOS 5D). Germination of 100 seeds per replicate was evaluated on digital images. Seeds were considered germinated when the radicle protruded from the seed coat.

[2] = test system: Brassica oleracea cv Botrytis (temperate cauliflower Spacestar) seeds; experiment: Cauliflower paper germination test under suboptimal conditions; assay type: in vivo; conditions: 25 μM, 10° C. and in the light
Protocol: The effect of compounds of Formula (I) on the germination of Brassica oleracea cv Botrytis or common cauliflower was tested on two types of cauliflowers: temperate types and tropical types. These two types were chosen because they display different sensitivities to the light conditions and temperature during germination. Germination of a sensitive temperate type is inhibited by light at 10° C. while for the tropical types germination at 20° is stimulated by the presence of light. […] The temperate seed batches tested are part of commercially produced seed batches of various varieties which are known to be sensitive to light at 10° C. These seeds were harvested and cleaned according standard commercial procedures. Ready seed batches were used (Ready indicates the processing level of these seeds: they have been cleaned and sized but received no other treatments). The tropical seed batches tested are part of seed batches produced as basic seed (for maintenance of the parental line) and were processed accordingly. Germination was assessed using the standard paper germination test for Brassica: Fifty seeds were placed on blue germination paper, which was moistened with the appropriate solutions, in closed oblong germination boxes. Each condition was tested in duplo. Germination boxes were placed in controlled germination cabinets with the appropriate temperature and light conditions. Germination of seeds was counted at regular intervals. Seeds were considered to be germinated when the radical had protruded the testa and endosperm (radical size approximately 1 mm). Test compounds were dissolved in DMSO at a concentration of 50 mM and stored at −20° C. The strigolactone analogue GR24 (commercially available as a racemic mixture of 2 diastereoisomers, referred to as “synthetic strigolactone GR-24” and first prepared by Johnson A. W. & all, Journal of the Chemical Society, Perkin Transactions 1, 1981, page 1734-1743) was included as positive control. Germination solutions were prepared by diluting the stock solutions with demineralized water till 25 μM. As control solutions demineralized water and a 0.05% v/v DMSO solution were used.

[3] = Spacestar seed batch 11B313 (cold-sensitive)
[4] = Spacestar seed batch 11B314 (not cold sensitive)

SMILES | Germination (%) ([1]; 0.001 mg l^−1) | Germination (%) ([1]; 0.01 mg l^−1) | Germination (%) ([1]; 0.1 mg l^−1) | Gmax (total germination as percentage of sown seeds) [2, 3] [%] | stimulation (extra germination compared to the DMSO treatment, as percentage of the germination in the DMSO treatment) [2, 3] [%] | Gmax (total germination as percentage of sown seeds) [2, 4] [%] | stimulation (extra germination compared to the DMSO treatment, as percentage of the germination in the DMSO treatment) [2, 4] [%]
CC1=C[C@H](O/C=C2/C(=O)N[C@@H]3c4ccsc4C[C@H]23)OC1=O (racemic) [Compound A3, (3aR*,8bS*)-(3E)-3-[(2R)(4-methyl-5-oxo-2H-furan-2-yl)oxymethylene]-3,3a,4,8b-tetrahydro-1H-thioindeno[1,2-b]pyrrol-2-one] | 87.8 | 85.6 | 84.6 | 75.0 | 38.9 | 94.0 | 9.3
CC1=C[C@H](O/C=C2/C(=O)O[C@@H]3c4ccccc4C[C@H]23)OC1=O [GR24] | 67 | 65 | 78.4 | 71.5 | 19.2 | 93.5 | 3.3
